Results on four compounds are retold here after publication PMC12394750, “2H-1,4-Benzoxazin-3(4H)-one linked 1,2,3-triazole derivatives and their study on inducing DNA damage in tumor cells” (Frontiers in Pharmacology, 2025).

As usually defined, the viability is a read-out of living cells in per cent, often relative to untreated cells. In general, IC50 refers to the concentration needed to halve the response being measured.

One experiment relates to A549 (lung cancer). Kind of experiment: CCK-8 cell viability, A549. The experiment is classed as cell-based. The following applies: Homo sapiens, 72 h. As for the experimental part:
(§1) To assess the cytotoxic potential of the newly synthesized compounds c1–c20, a panel of human tumor cell lines—including Huh-7 (hepatocellular carcinoma), MCF-7 (breast cancer), and A549 (lung cancer)—was treated with each compound at a concentration of 50 μM for 72 h. Cell viability and cytotoxicity were evaluated using the CCK-8 assay.
(§2) Cells were cultured in DMEM or RPMI 1640 medium with 10% FBS and 1% penicillin/streptomycin at 37 °C and 5% CO2. A CCK-8 assay was performed with several human cancer cell lines, including A549, Huh-7, MCF-7, HCT-116, and SKOV3, according to the instructions. Cells were plated at a density of 1,000–3,000 cells per well in a 96-well plate. After 24-h incubation, cells were treated with 40 μM compounds for 48 h or 50 μM compounds for 72 h. Cell viability was measured by adding 10 μL per well of CCK-8 reagent, which was dissolved in the cell culture medium, for 1 hour. Absorbance was taken at 450 nm using a microplate reader. The IC50 values of the compounds were further determined. Cells were seeded in a 96-well plate at a density of 1 × 10^3 cells/well. After adhering overnight, cells treated with […] concentrations (10 μM, 20 μM, 40 µM, or 80 μM) were used to draw the dose–response curve, and IC50 values were calculated by GraphPad Prism software. The CCK-8 assay was performed in triplicate, and each experiment was repeated at least three times. The results were expressed as mean ± SEM, and P < 0.05 was considered statistically significant.

Experiment [1] has as its system Huh-7 cells. Put plainly: Calcein AM/PI live/dead viability assay. Format: cell-based, human. The following applies: Huh-7, 10, 20 or 30 μM, 24 h. As for the experimental part: To evaluate the anti-proliferative effects of 2H-1,4-benzoxazin-3(4H)-one linked 1,2,3-triazole derivatives, live/dead cell staining was performed using Calcein AM and PI on Huh-7 cells. The cells were treated with different concentrations (10 μM, 20 μM, or 30 μM) of compounds c5, c14, c16, and c18 for 24 h. Living cells were stained green by Calcein AM, while dead cells were stained red by PI.
FIGURE 4 Compounds c5, c14, c16, and c18 increased dead cells and decreased living cells. (A–D) Huh-7 cells were treated with different concentrations of compounds c5, c14, c16, and c18 (10 μM, 20 μM, or 30 μM) for 24 h. Living and dead cells were stained with Calcein AM and PI, respectively, and then observed by confocal microscopy. Data were presented as means ± SEM; *P < 0.05.
A live and dead viability assay was performed using the Calcein/PI Live/Dead Viability Assay Kit. Cells were plated at a density of 2 × 10^3 cells per well in a 96-well plate to adhere overnight. Then, compounds were added with different concentrations for 24 h. The medium was replaced with cell culture medium containing Calcein AM and propidium iodide for 30 min at 37 °C in the dark. Cells were then observed and photographed by confocal microscopy.

Experiment [2] concerns Huh-7 (hepatocellular carcinoma). Put plainly: CCK-8 cell viability / IC50, Huh-7. The experiment is classed as cell-based, human. The following applies: Homo sapiens, Huh-7, 72 h; for viability at 50 µM: CCK-8; for IC50: CCK-8 dose-response. As for the experimental part:
as §1, §2

In the next experiment the test system is MCF-7 (breast cancer). Kind of experiment: CCK-8 cell viability, MCF-7. Format: cell-based. The following applies: Homo sapiens, MCF7, 72 h. As for the experimental part:
as §1, §2

In experiment [3] the test system is Huh-7 cells. Kind of experiment: Western blot protein expression. Format: cell-based, human. The following applies: Huh-7, 72 h (Figure 6 legend 24 h), 20 or 30 μM. As for the experimental part: To further examine the regulatory effects of 2H-1,4-benzoxazin-3(4H)-one linked 1,2,3-triazole derivatives on protein expression, Huh-7 cells were treated with compounds c5, c14, c16, and c18 for 72 h, after which whole-cell protein lysates were collected for analysis.
FIGURE 6 Compounds c5, c14, c16, and c18 affected DNA damage and autophagy. (A–D) Huh-7 cells were treated with different concentrations of compounds c5, c14, c16, and c18 (20 or 30 μM) for 24 h. Protein expressions were analyzed by Western blot. Top: Western blot; bottom: quantitative measurements relative to ACTIN. Data were presented as means ± SEM; *P < 0.05.
Antibodies used in Western blot were as follows: caspase3, caspase9, LC3, γ-H2AX, PARP, cyclin D, cyclin E, β-catenin (all from Cell Signaling Technology, United States), and β-actin (Sigma, United States). Cells were treated with compounds (0 μM, 5 μM, 10 μM, 20 μM, or 30 μM) for 72 h, and the whole-cell proteins were collected using RIPA buffer containing protease/phosphatase inhibitor cocktail. The protein expressions were measured and analyzed using Western blot. Values were expressed as mean ± SEM. Statistical significance was assessed using a two-tailed Student’s t-test. P < 0.05 was considered statistically significant. Data were visualized using GraphPad Prism.

Experiment [4] relates to Huh-7 cells. Kind of experiment: DNA damage staining (γ-H2AX). The experiment is classed as cell-based, human. The following applies: Huh-7, 10, 20 or 30 μM, 24 h. As for the experimental part: In order to further verify the effects of 2H-1,4-benzoxazin-3(4H)-one linked 1,2,3-triazole derivatives on DNA damage, Huh-7 cells were treated with different concentrations (10 μM, 20 μM, or 30 μM) of compounds c5, c14, c16, and c18. After 24 h of treatment, cells were detected with the DNA damage assay kit and observed under a fluorescence microscope.
FIGURE 7 Compounds c5, c14, c16, and c18 affected DNA damage. (A–D) DNA damage detection shown by γ-H2AX staining in Huh-7 cells treated with compounds c5, c14, c16, and c18 (10 μM, 20 μM, or 30 μM).
Huh-7 cells with a density of 2 × 10^3 cells/well were seeded in 96-well plates. Different doses (0 μM, 5 μM, 10 μM, 20 μM, or 30 μM) of the compounds were added to cells for 24 h. A DNA Damage Detection Kit was used to dye the cells. The cell nucleus was stained blue, and DNA-damaged cells were stained green. The cells were observed and photographed by a fluorescent microscope.

Experiment [5] deals with Huh-7 cells. Kind of experiment: Annexin V-FITC/PI apoptosis flow cytometry. The experiment is classed as cell-based, human. The following applies: Huh-7, 10, 20 or 30 μM, 72 h. As for the experimental part:
Apoptosis, a programmed form of cell death, was investigated to understand the molecular mechanisms behind the anti-proliferative effects of the novel compounds. Huh-7 cells were treated with various concentrations (10 μM, 20 μM, or 30 μM) of compounds c5, c14, c16, and c18 for 72 h. The cells were then stained with Annexin V-FITC and propidium iodide (PI) and analyzed by flow cytometry to determine the proportion of apoptotic cells.
Cells were plated at a density of 3 × 10^5 cells per well in a 6-well plate. Different concentrations of compounds were added to cells for 72 h. Then, cells were collected and washed with PBS. Annexin V-FITC and propidium iodide were then added to stained cells for 20 min. Apoptotic cells were quantified by a flow cytometer, and raw data were further analyzed by Flow Jo software v10. Values were expressed as mean ± SEM. Statistical significance was assessed using one-way ANOVA followed by the Student–Newman–Keuls test. P < 0.05 was considered statistically significant. Data were visualized using GraphPad Prism.
A general note: Flow cytometry measures light scatter and fluorescence of single cells or particles in a stream.

Consider `O=C1COc2cc(NC(=O)c3cccc(-c4cn(Cc5ccc(Br)cc5)nn4)c3)ccc2N1` [compound c5, 3-(1-(4-bromobenzyl)-1H-1,2,3-triazol-4-yl)-N-(3-oxo-3,4-dihydro-2H-benzo[b][1,4]oxazin-7-yl)benzamide], for which, in the experiment with A549 (lung cancer), the viability at 50 µM worked out at 90.8 ± 5.32%. For the same compound, the “Dead cells (PI) in live/dead staining” value with Huh-7 cells [1] is listed as “dose-dependent increase”. In addition, in experiment [2], the viability at 50 µM was 15.1 ± 0.43% and the IC50 worked out at 28.5 ± 0.29 µM. Besides, the viability at 50 µM in the experiment with MCF-7 (breast cancer) is 107 ± 2.85%. Moreover, in the experiment on Huh-7 cells [3], the H2AX protein expression result is reported as “upregulated”, the LC3 protein expression entry was “significantly induced”, the PARP protein expression result is reported as “upregulated” and the caspase-3 protein expression result is on record as “upregulated”. In the experiment with Huh-7 cells [3], the “cyclin D protein expression” value is “downregulated”. The “DNA damage (γ-H2AX staining)” value in the experiment on Huh-7 cells [4] is reported as “significantly induce cell DNA damage”. In the experiment on Huh-7 cells [5], the “Apoptosis (proportion of apoptotic cells)” value (shortened to “Apoptosis”) is on record as “significant, dose-dependent increases”.

Regarding `O=C1COc2cc(NC(=O)c3cccc(-c4cn(Cc5ccc(C(F)(F)F)cc5)nn4)c3)ccc2N1` [compound c16, N-(3-oxo-3,4-dihydro-2H-benzo[b][1,4]oxazin-7-yl)-3-(1-(4-(trifluoromethyl)benzyl)-1H-1,2,3-triazol-4-yl)benzamide], the viability at 50 µM with A549 (lung cancer) turned out to be 76.8 ± 4.31%. In the experiment with Huh-7 cells [1], the “Dead cells (PI) in live/dead staining” value is reported as “dose-dependent increase”. Further, in experiment [2], the viability at 50 µM came out at 17.7 ± 1.27% and half-maximal inhibition (IC50) was put at 31.87 ± 0.04 µM. Besides, the viability at 50 µM in the experiment with MCF-7 (breast cancer) came to 101.6 ± 0.92%. Also, in the experiment on Huh-7 cells [3], the H2AX protein expression entry was “upregulation”, the LC3 protein expression entry is on record as “upregulation”, the PARP protein expression entry was “upregulation” and the “cyclin D protein expression” value was “downregulation”. Moreover, the “DNA damage (γ-H2AX staining)” value in the experiment on Huh-7 cells [4] is on record as “significantly induce cell DNA damage”. In the experiment on Huh-7 cells [5], the “Apoptosis” value is listed as “significant, dose-dependent increases”.

Regarding `O=C1COc2cc(NC(=O)c3cccc(-c4cn(Cc5cccc(F)c5)nn4)c3)ccc2N1` [compound c14, 3-(1-(3-fluorobenzyl)-1H-1,2,3-triazol-4-yl)-N-(3-oxo-3,4-dihydro-2H-benzo[b][1,4]oxazin-7-yl)benzamide], the viability at 50 µM with A549 (lung cancer) is 77.5 ± 3.1%. For the same compound, the “Dead cells (PI) in live/dead staining” value with Huh-7 cells [1] is listed as “dose-dependent increase”. In experiment [2], the viability at 50 µM turned out to be 18.1 ± 0.76% and it took 32.6 ± 1.23 µM to reach half-maximal inhibition (IC50). Further, in the experiment with MCF-7 (breast cancer), the viability at 50 µM worked out at 106 ± 1.48%. Also, in the experiment on Huh-7 cells [3], the H2AX protein expression result was “upregulation”, the LC3 protein expression result is on record as “upregulation”, the PARP protein expression result was “upregulation” and the “cyclin D protein expression” value is listed as “downregulation”. The “DNA damage (γ-H2AX staining)” value in the experiment on Huh-7 cells [4] is recorded as “significantly induce cell DNA damage”. Besides, the “Apoptosis” value in the experiment with Huh-7 cells [5] was “significant, dose-dependent increases”.

Take `O=C1COc2cc(NC(=O)c3cccc(-c4cn(Cc5ccc(Cl)cc5)nn4)c3)ccc2N1` [compound c18, 3-(1-(4-chlorobenzyl)-1H-1,2,3-triazol-4-yl)-N-(3-oxo-3,4-dihydro-2H-benzo[b][1,4]oxazin-7-yl)benzamide]: the viability at 50 µM in the experiment on A549 (lung cancer) came out at 89.8 ± 2.89%. In the experiment with Huh-7 cells [1], the “Dead cells (PI) in live/dead staining” value was “dose-dependent increase”. Moreover, in experiment [2], the viability at 50 µM came to 17.1 ± 0.43% and half-maximal inhibition (IC50) was put at 19.05 ± 0.12 µM. Besides, in the experiment on MCF-7 (breast cancer), the viability at 50 µM amounted to 103 ± 1.83%. Further, in the experiment on Huh-7 cells [3], the H2AX protein expression result is “upregulation”, the LC3 protein expression result is “upregulation”, the PARP protein expression result was “upregulation” and the “cyclin D protein expression” value was “downregulation”. Further, in the experiment with Huh-7 cells [4], the “DNA damage (γ-H2AX staining)” value is “significantly induce cell DNA damage”. In the experiment with Huh-7 cells [5], the “Apoptosis” value is listed as “significant, dose-dependent increases”.
